Data published in patent US5230998A, “Method for the prescreening of drugs targeted to the V3 hypervariable loop of the HIV-1 envelope glycoprotein gp 120” (priority 1991, dated 1993).
“Also recorded” adds a separate entry of the source.

What was measured:
[1] = biological target: T1, HIV-1 gp120 V3 hypervariable loop (Human immunodeficiency virus type 1 group M subtype B, UniProt P03375); assay: biochemical; assay type: binding; as to Inhibitory activity: key: Chemicals with inhibitory activity are indicated by +
T1 construct: Polystyrene plates coated with recombinant gp120 and gp160, respectively; purchased American Bio-Technologies, Inc., Cambridge, Mass; host or cells: baculovirus expression system
In short: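 Inhibition RIA/ELISA: gp120/gp160-coated or synthetic peptide-coated wells (gp120/gp41 of HIV-1 BH10 and V3 loops of 21 isolates) incubated overnight at 25 °C with rabbit anti-peptide antisera (1:150, or 1:1,000 for V3) ± compound (ATA 50 μg/ml). Bound IgG detected with 125I-anti-rabbit IgG; percent inhibition versus no-compound control.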

[2] = biological target: T2, V3 hypervariable loop peptide (303-338) (Human immunodeficiency virus type 1 BH10, UniProt P03375); assay: Attachment of ATA determined by anti-ATA antibodies (double antibody RIA); assay type: binding, HIV-1 BH 10; conditions: FIG. 1C, FIG. 2
T2 construct: cut from Env gp160
Method: (§1) Antibodies to ATA were detected by double antibody RIA using wells coated with an ATA-ovalbumin conjugate. This conjugate was prepared in the same way as described for the ATA-BSA conjugate. Dilution endpoints of anti-ATA antibodies, determined as described by Ritchie, D. G., Nickerson, J. M., and Fuller, G. M. (1983), "Two Simple Programs for the Analysis of Data from Enzyme-linked Immunosorbent Assays (ELISA) on a Programmable Desk-top Calculator," Methods in Enzymology, 92, 577-588) of the two antisera were: 1:2,700 and 1:150,000, respectively. The second antiserum was used for subsequent RIA tests.
(§2) ATA was also added to a control peptide, (518-542), and to wells coated with gelatin only. After incubation for 4 hours at 20° C., excess ATA was removed, the wells were washed with TS and attached ATA was determined by double-antibody RIA using serial dilutions of the anti-ATA antiserum. Similar tests were carried out with serum from the same rabbit before immunization with the ATA-BSA conjugate; the corresponding results (100-450 cpm) were subtracted from cpm corresponding to RIA results obtained with the anti-ATA antiserum. For additional assays aimed at determining the binding of ATA to synthetic peptides from gp120 and gp41 of HIV-1 BH 10 and to V3 hypervariable loop peptides from 20 additional HIV-1 isolates, anti-ATA antiserum was used at a final dilution of 1:800.

gp120 = biological target: T3, gp120 (Human immunodeficiency virus type 1 BH10, UniProt P03375); assay: as above; assay type: binding, HIV-1 BH 10; conditions: FIG. 2; listed as ATA
T3 construct: cut from Env gp160
Method: as §1, §2

peptide (492-518) = peptide (492-518) (Human immunodeficiency virus type 1 BH10, UniProt P03375); assay: as above; assay type: binding, HIV-1 BH 10; conditions: FIG. 1C
Method: as §1, §2

[3] = biological target: T4, HIV-1 JY-1 V3 hypervariable loop peptide (Human immunodeficiency virus type 1 lw12.3 isolate, UniProt Q70626); assay: Reactivity/attachment of ATA with V3 hypervariable loop peptides of distinct HIV-1 isolates (FIG. 4); assay type: binding
T4 construct: cut from Env gp160
T4 sequence (Q70626 296-331): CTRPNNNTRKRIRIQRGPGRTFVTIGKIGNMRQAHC
Method: (§3) FIG. 4 comprises bar graphs depicting the interaction of aurintricarboxylic acid (ATA) with full length V3 hypervariable loop peptides from gp120 of distinct HIV-1 isolates (clones). FIG. 4A: Inhibitory effects of ATA (50 μg/ml) on the reaction between peptide-coated wells and homologous anti-peptide antisera (diluted 1:1,000). FIG. 4B: attachment of ATA to distinct V3 hypervariable loop peptide-coated wells as determined by double antibody RIA using rabbit antiserum against ATA.
(§4) To define sites on gp120/gp41 reacting with ATA, the inhibitory effect of this compound was studied by RIA tests using gp120- and gp160-coated wells, respectively, and antisera (final dilutions 1:150) against synthetic peptides from the entire sequence of gp120/gp41 of HIV-1 BH 10. The preparation and biological properties of these antisera were described elsewhere (Neurath et al., (1990), J. Gen. Virol., 71, 85-95). Each of the antisera was diluted in a mixture of fetal bovine serum and goat serum (9:1) containing 0.1% Tween 20, adjusted to pH 8. ATA (final concentration 50 μg/ml) was added in one set of assays, but was omitted from a parallel set. After incubation overnight at 25° C., the plates were washed with TS. Attached rabbit IgG was detected using ^125 I-labeled anti-rabbit IgG, as described before (Neurath et al., 1990, J. Gen. Virol., 71, 85-95). Similarly, the inhibitory effect of ATA on the reaction of peptides derived from gp120/gp41 and of peptides derived from V3 hypervariable loops from gp120 of distinct HIV-1 isolates with the respective homologous anti-peptide antisera was studied. In the latter case, antisera were diluted 1:1,000 for the assays.
(§5) ATA was also added to a control peptide, (518-542), and to wells coated with gelatin only. After incubation for 4 hours at 20° C., excess ATA was removed, the wells were washed with TS and attached ATA was determined by double-antibody RIA using serial dilutions of the anti-ATA antiserum. […]

[4] = biological target: T5, HIV-1 SC V3 hypervariable loop peptide (Human immunodeficiency virus type 1 (SC ISOLATE), UniProt P05878); assay: as above; assay type: binding
T5 construct: cut from Env gp160
T5 sequence (P05878 296-330): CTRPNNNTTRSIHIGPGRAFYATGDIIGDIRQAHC
Method: as §3, §4, §5

Row | SMILES | extent of inhibition of reaction between gp120 and anti-V3 antibodies versus antibody dilution ([1]; ATA 50 μg/ml, FIG. 3) | inhibition of attachment to gp120 of antibodies against the (303-338) segment ([1]; ATA 50 μg/ml, antisera 1:150, significant inhibition (FIG. 1A)) [%] | binding of ATA to peptide (anti-ATA antibodies) [2] | binding of ATA to gp120 (anti-ATA antibodies) (gp120) | binding of ATA to peptide (anti-ATA antibodies) (peptide (492-518)) | reactivity of ATA with V3 hypervariable loop peptide [3] | reactivity of ATA with V3 hypervariable loop peptide ([4]; FIG. 4) | ATA binding to V3 peptide ([4]; FIG. 4B) | Inhibitory activity ([1]; Table 1, reaction between HIV-1 gp120 and anti-V3 loop antibodies) | inhibition at 50 µg/mL ([1]; read-out: percentage of inhibition) [%]
1 | O=C(O)C1=CC(=C(c2ccc(O)c(C(=O)O)c2)c2ccc(O)c(C(=O)O)c2)C=CC1=O [substance #122, aurintricarboxylic acid] | correlated with the dilution of antibodies | ≥ 22 | most efficient binder of ATA | reacted with gp120; also recorded: remained bound to gp120 after removal of the excess of the compound | bound to the peptide (492-518) | minimal | minimal | bound very little ATA | – | –
2 | C=Cc1c(C)c2cc3nc(c(CC(=O)O)c4[nH]c(cc5nc(cc1[nH]2)C(C)=C5CC)c(C)c4C(=O)O)[C@@H](CCC(=O)O)[C@@H]3C [substance #149, chlorine e6] | – | – | – | – | – | – | – | – | + | 76.3
